Columns and labels:
[1] = Weight loss of additive by thermogravimetric analysis (TGA); assay type: physicochemical; settings: 5° C./min, nitrogen; for Temperature at which stated weight loss of additive occurs, 5%: 5% weight loss; for Temperature at which stated weight loss of additive occurs, 10%: 10% weight loss
Description: Weight loss data for the hindered amines are obtained by thermogravimetric analysis on a DuPont model 2100 analyzer, operated at a scan rate of 5° C./min in a nitrogen atmosphere using 4-5 mg sample in aluminum pans.

[2] = pKa of hindered amines by non-aqueous titration; assay type: physicochemical; settings: extrapolated from calibration plot
From the text: The pKa measurements of the hindered amines are obtained by non-aqueous titration. Organic reference materials with known pKa values in water, are titrated in non-aqueous media (1:1 acetonitrile:chloroform and 0.1 N perchloric acid/dioxane titrant system) to generate a non-aqueous calibration plot of half-neutralization potential (HNP) versus pKa. The "unknown" hindered amines are then titrated to determine the HNP, and extrapolated to obtain the corresponding pKa from this calibration plot.

[3] = Discoloration (delta E), Dry XAW, two-pass compounded clear PC/ABS (Example 6); settings: in words
Description: Accelerated weathering is performed using an Atlas Ci65A Weather-o-meter ("XAW"), operated in either "Dry XAW" mode (ASTM G26-90 method C) or interior auto ("IAXAW") (black panel temperature 89° C., light/dark cycle 3.8 hr/1.0 hr; irradiance 0.55 watt/m^2, inner filter-quartz, outer filter--high borate.
Yellowness Index and delta E color are performed as per ASTM D-1925, using a Chroma-Sensor CS-5 Colorimeter, operated at 10 degree, small area view, specular included.
This polymer blend is prepared by two-step compounding. The hindered amine is extrusion compounded with ABS on a 18 mm twin screw extruder with set temperatures (throat to die, ° C.) of 170/200/215/225/225/225. The ABS is optionally redried then extrusion compounded with an equal weight of polycarbonate to achieve a 50/50 wt/wt ratio blend. TINUVIN® 234 is added during the second extrusion compounding step although the UV absorber can also be added during the first compounding step.
Thereafter, chip impact bars are prepared and subjected to dry XAW accelerated weathering. The samples are removed at selected intervals for color measurement and then for destructive chip impact testing.

Structure (SMILES)	Temperature at which stated weight loss of additive occurs, 10% [1]	Approximate pKa [2]	Temperature at which stated weight loss of additive occurs, 2% ([1]; 2% weight loss (printed in 5% column))	Temperature at which stated weight loss of additive occurs, 1% ([1]; 1% weight loss (printed in 5% column))	Temperature at which stated weight loss of additive occurs, 5% [1]	color stability [3]
CC1(C)CN(CCN(c2nc(N(CCN3CC(C)(C)NC(C)(C)C3=O)C3CCCCC3)nc(N(CCN3CC(C)(C)NC(C)(C)C3=O)C3CCCCC3)n2)C2CCCCC2)C(=O)C(C)(C)N1 [GOODRITE ® 3150, 1,3,5-tris{N-cyclohexyl-N-[2-(3,3,5,5-tetramethylpiperazin-2-on-1-yl)ethyl]amino}-s-triazine]	362 °C	~6.7	–	–	345 °C	reasonably equivalent color stability
CCCCCCCCON1C(C)(C)CC(OC(=O)CCCCCCCCC(=O)OC2CC(C)(C)N(OCCCCCCCC)C(C)(C)C2)CC1(C)C [TINUVIN ® 123, bis(1-octyloxy-2,2,6,6-tetramethylpiperidin-4-yl) sebacate]	236 °C	~4.4	–	–	222 °C	–
CC(C)(c1ccccc1)c1cc(-n2nc3ccccc3n2)c(O)c(C(C)(C)c2ccccc2)c1 [TINUVIN® 234, 2-(2-hydroxy-3,5-di-α-cumylphenyl)-2H-benzotriazole]	–	–	–	–	–	reasonably equivalent color stability

More lines, main results first:

Temperature at which stated weight loss of additive occurs, 10% [1]	Approximate pKa [2]	Temperature at which stated weight loss of additive occurs, 2% ([1]; 2% weight loss (printed in 5% column))	Temperature at which stated weight loss of additive occurs, 1% ([1]; 1% weight loss (printed in 5% column))	Structure (SMILES)	Temperature at which stated weight loss of additive occurs, 5% [1]	color stability [3]
372 °C	~6.1	319 °C	–	CN1C(C)(C)CN(CCN(c2nc(N(CCN3CC(C)(C)N(C)C(C)(C)C3=O)C3CCCCC3)nc(N(CCN3CC(C)(C)N(C)C(C)(C)C3=O)C3CCCCC3)n2)C2CCCCC2)C(=O)C1(C)C [GOODRITE ® 3159, 1,3,5-tris{N-cyclohexyl-N-[2-(3,3,4,5,5-pentaamethylpiperazin-2-on-1-yl)ethyl]amino}-s-triazine]	–	–
260 °C	~9.0	–	200 °C	CC1(C)CC(OC(=O)CCCCCCCCC(=O)OC2CC(C)(C)NC(C)(C)C2)CC(C)(C)N1 [TINUVIN ® 770, bis(2,2,6,6-tetramethylpiperidin-4-yl) sebacate]	–	–

Source: US5990208A, “Stabilization of polycarbonate/ABS blends with mixtures of hindered amines and UV absorbers” (Ciba Specialty Chemicals Corporation, priority 1997, dated 1999)
